Experimental findings from patent US20230104936A1, “TRPML MODULATORS” (Casma Therapeutics, Inc., priority 2019, published 2023) are described below.

A word on the AC50: it is the concentration at which the activity in the assay is half-maximal. A higher AC50 goes with weaker potency.

The subject of this test is TFEB. Put plainly: TFEB nuclear translocation assay, HeLa wt cells. It counts as cell-based. The conditions noted are these: 2 hrs compound treatment, Table 1 does not say HeLa wt or TRPML1 KO. An outline of the steps: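 HeLa wt, 2 hr compound, 37° C; 4% PFA fix; anti-TFEB (rabbit, 1:200, overnight 4° C) + Alexa 488 secondary, Hoechst. Imaged ×20, 4 fields/well. Readout: nuclear/ring Alexa 488 intensity ratio; AC50.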

Under “Homo sapiens, HeLa, 2 h”, `CCC1(N2CCCC2)CCN(c2ccccc2NS(=O)(=O)c2ccc(S(=O)(=O)N(C)C)cc2)CC1` [Compound A-452, N4-{2-[4-ethyl-4-(pyrrolidin-1-yl)piperidin-1-yl]phenyl}-N1,N1-dimethylbenzene-1,4-disulfonamide] showed an AC50 of 8.01 to 9.99 µM. For `CC(c1ccc(F)cc1N1CCC2(CC1)COC(C)(C)C2)S(=O)(=O)c1ccc(S(=O)(=O)N(C)C)cc1` (stereo not drawn) [Compound A-737, 4-[1-(2-{3,3-dimethyl-2-oxa-8-azaspiro[4.5]decan-8-yl}-4-fluorophenyl)ethanesulfonyl]-N,N-dimethylbenzene-1-sulfonamide], the AC50 (Homo sapiens, HeLa, 2 h) was no less than 10 µM. Same read-out and setting: with `C[C@@H]1CN(CC2CCN(c3c(F)cccc3[C@H](C)S(=O)(=O)c3ccc(S(=O)(=O)N(C)C)cc3)CC2)C[C@H](C)O1` [Compound A-783, 4-[(1S)-1-[2-(4-{[(2R,6S)-2,6-dimethylmorpholin-4-yl]methyl}piperidin-1-yl)-3-fluorophenyl]ethanesulfonyl]-N,N-dimethylbenzene-1-sulfonamide] the figure was no more than 2 µM. `CN(C)S(=O)(=O)c1ccc(S(=O)(=O)Nc2cccc(F)c2N2CCC(N3CCC34CCCOC4)CC2)cc1` (stereo not drawn) [Compound A-917, N4-[3-fluoro-2-(4-{6-oxa-1-azaspiro[3.5]nonan-1-yl}piperidin-1-yl)phenyl]-N1,N1-dimethylbenzene-1,4-disulfonamide] came in with an AC50 (Homo sapiens, HeLa, 2 h) of 2.01 to 8 µM. For the setting “Homo sapiens, HeLa, 2 h”, `CN1CCN(S(=O)(=O)c2ccc(S(=O)(=O)Nc3ccccc3N3CCC(c4c(F)cccc4F)CC3)cc2)CC1` [Compound A-220, N-{2-[4-(2,6-difluorophenyl)piperidin-1-yl]phenyl}-4-[(4-methylpiperazin-1-yl)sulfonyl]benzene-1-sulfonamide] came in with an AC50 of no less than 10 µM.

Consider `COc1ccc(S(=O)(=O)Nc2ccccc2N2CCC(Cc3ccc(F)cc3F)C2)cc1` (stereo not drawn) [Compound A-197, N-(2-{3-[(2,4-difluorophenyl)methyl]pyrrolidin-1-yl}phenyl)-4-methoxybenzene-1-sulfonamide], for which, for the setting “Homo sapiens, HeLa, 2 h”, the AC50 is no less than 10 µM. `C[S+]([O-])c1ccc(S(=O)(=O)Nc2ccccc2N2CCC(c3ccc(F)cc3F)CC2)cc1` (stereo not drawn) [Compound A-160, N-{2-[4-(2,4-difluorophenyl)piperidin-1-yl]phenyl}-4-methanesulfinylbenzene-1-sulfonamide]: the AC50 (Homo sapiens, HeLa, 2 h) is 2.01 to 8 µM. `CN(C)C(=O)c1ccc(S(=O)(=O)Nc2ccccc2N2CCC(c3ccc(Cl)cc3F)CC2)cc1` [Compound A-44, 4-({2-[4-(4-chloro-2-fluorophenyl)piperidin-1-yl]phenyl}sulfamoyl)-N,N-dimethylbenzamide] gave an AC50 (Homo sapiens, HeLa, 2 h) of no more than 2 µM. Still for that read-out and setting: next, `CC1(C)Cc2cc(S(=O)(=O)Nc3ccccc3N3CCC4(CCOCC4)CC3)ccc2O1` [Compound A-654, 2,2-dimethyl-N-(2-{3-oxa-9-azaspiro[5.5]undecan-9-yl}phenyl)-2,3-dihydro-1-benzofuran-5-sulfonamide]: no more than 2 µM; `CN(C)S(=O)(=O)c1ccc(S(=O)(=O)Nc2cccc(F)c2N2CCC(CN3C[C@@H]4C[C@H]3CO4)CC2)cc1` [Compound A-785, N4-[3-fluoro-2-(4-{[(1S,4S)-2-oxa-5-azabicyclo[2.2.1]heptan-5-yl]methyl}piperidin-1-yl)phenyl]-N1,N1-dimethylbenzene-1,4-disulfonamide]: no more than 2 µM.

In turn, `O=S(=O)(Nc1cccc(Cl)c1N1CCOCC1)c1cnn2c1CCCC2` [Compound A-369, N-[3-chloro-2-(morpholin-4-yl)phenyl]-4H,5H,6H,7H-pyrazolo[1,5-a]pyridine-3-sulfonamide] came in with a half-maximal activity concentration (AC50) (Homo sapiens, HeLa, 2 h) of no less than 10 µM. As for `Cc1cc(NS(=O)(=O)c2ccc3c(c2)CCC3)c(Cl)c(N2CCOCC2)c1` [Compound A-823, N-[2-chloro-5-methyl-3-(morpholin-4-yl)phenyl]-2,3-dihydro-1H-indene-5-sulfonamide], under “Homo sapiens, HeLa, 2 h”, the AC50 is no less than 10 µM. On to `C[C@@H]1C[C@@]2(CCN1c1ccccc1NS(=O)(=O)c1ccc(S(=O)(=O)N(C)C)cc1)COC(C)(C)C2` (racemic) [Compound A-799, N1,N1-dimethyl-N4-(2-((5R,7R)-3,3,7-trimethyl-2-oxa-8-azaspiro[4.5]decan-8-yl)phenyl)benzene-1,4-disulfonamide], for which, where the note is “Homo sapiens, HeLa, 2 h”, the AC50 is no more than 2 µM. The same measure, in the same setting: next, `CN(C)S(=O)(=O)c1ccc(S(=O)(=O)n2nc(C3CCN(c4c(F)cccc4F)CC3)c3c2CCNC3)cc1` [Compound A-533, 4-({3-[1-(2,6-difluorophenyl)piperidin-4-yl]-1H,4H,5H,6H,7H-pyrazolo[4,3-c]pyridin-1-yl}sulfonyl)-N,N-dimethylbenzene-1-sulfonamide]: 2.01 to 8 µM; `COCC1(C)CCN(c2ccccc2NS(=O)(=O)c2ccc3c(c2)COC3)CC1` [Compound A-645, N-{2-[4-(methoxymethyl)-4-methylpiperidin-1-yl]phenyl}-1,3-dihydro-2-benzofuran-5-sulfonamide]: 8.01 to 9.99 µM; `CC(C)(C)C(=O)N1CCN(c2ccccc2NS(=O)(=O)c2ccc(SC(F)(F)F)cc2)CC1` [Compound A-574, N-{2-[4-(2,2-dimethylpropanoyl)piperazin-1-yl]phenyl}-4-[(trifluoromethyl)sulfanyl]benzene-1-sulfonamide]: 2.01 to 8 µM. Same read-out and setting: next, `C[C@H]1COC[C@H](C)N1C[C@H]1CCN(c2c(F)cccc2NS(=O)(=O)c2ccc(S(=O)(=O)N(C)C)cc2)C1` (relative stereo) [Compound A-896, N4-{2-[(3R)-3-{[3,5-dimethylmorpholin-4-yl]methyl}pyrrolidin-1-yl]-3-fluorophenyl}-N1,N1-dimethylbenzene-1,4-disulfonamide]: no more than 2 µM. Take `C[C@H](c1cccc(F)c1N1CCC(F)(F)CC1)S(=O)(=O)c1ccc(S(=N)(=O)N(C)C)cc1` (single isomer, unassigned) [Compound A-891]: the AC50 was no less than 10 µM. In the case of `COc1ccc(S(=O)(=O)Nc2ccccc2N2CCN(Cc3ccc(F)cc3F)CC2)cc1` [Compound A-194, N-(2-{4-[(2,4-difluorophenyl)methyl]piperazin-1-yl}phenyl)-4-methoxybenzene-1-sulfonamide], the AC50 (Homo sapiens, HeLa, 2 h) is no less than 10 µM. `CN1CCC(N(C)S(=O)(=O)c2ccc(NC(=O)COc3ccccc3-c3ccccc3)cc2)CC1` [Compound A-404, 2-{[1,1′-biphenyl]-2-yloxy}-N-{4-[methyl(1-methylpiperidin-4-yl)sulfamoyl]phenyl}acetamide] yielded an AC50 (Homo sapiens, HeLa, 2 h) of 2.01 to 8 µM. Compound `C[C@H]1COC[C@H](C)N1CC1CCN(c2c(F)cccc2NS(=O)(=O)c2ccc(S(=N)(=O)N(C)C)cc2)CC1` (single isomer, unassigned) [Compound A-834] returned a concentration at half-maximal activity (AC50) (Homo sapiens, HeLa, 2 h) of no more than 2 µM.

`O=S(=O)(Nc1ccccc1N1CCC(c2ccc(Cl)cc2F)CC1)c1ccc(F)cc1` [Compound A-74, N-{2-[4-(4-chloro-2-fluorophenyl)piperidin-1-yl]phenyl}-4-fluorobenzene-1-sulfonamide] came in with an AC50 (Homo sapiens, HeLa, 2 h) of 2.01 to 8 µM. Where the note is “Homo sapiens, HeLa, 2 h”, `CN(C)S(=O)(=O)c1ccc(S(=O)(=O)Nc2ccccc2N2CCC(COC(F)F)CC2)cc1` [Compound A-543, N4-(2-{4-[(difluoromethoxy)methyl]piperidin-1-yl}phenyl)-N1,N1-dimethylbenzene-1,4-disulfonamide] had an AC50 of no more than 2 µM. Take `C#Cc1cccc(NS(=O)(=O)c2ccc(S(=O)(=O)N(C)C)cc2)c1N1CCCCC1` [Compound A-901, N4-[3-ethynyl-2-(piperidin-1-yl)phenyl]-N1,N1-dimethylbenzene-1,4-disulfonamide]: where the note is “Homo sapiens, HeLa, 2 h”, the AC50 was no more than 2 µM.
